Laboratory results published in patent publication US5397787A, “Vinylene-azaindole derivatives” (Farmitalia Carlo Erba S.R.L., priority 1992, dated 1995).
pIC50: −log10 of the molar value.

Target: p45 v-abl tyrosine kinase
Experiment: Exogenous Substrate Kinase Assay: p45 v-abl kinase inhibition, (Val5)-Angiotensin II phosphorylation
Type: biochemical, Abelson murine leukemia virus
Conditions: (Val^5)-Angiotensin II 2 mM, ATP 50 μM, pH 8.0, 30° C., triplicate determinations
Method: The enzyme used in our test was the p45 v-abl tyrosine kinase which represents the catalytic domain of the Abelson tyrosine kinase (isolated from the Abelson murine leukemia virus). The p45 v-abl kinase was produced and isolated as described by Wang et al. in J. Biol. Chem. 260, 64 (1985) and by Ferguson et al. in J. Biol. Chem. 260, 3652 (1985) and in Biochem. J. 257, 321 (1989).
(Val^5)-Angiotensin II phosphorylation was performed by incubation with 40 ng of purified abl-kinase and (γ-^32 P)-ATP, in 50 μl of buffer containing Tris-HCl 25 mM, pH 8.0, MgCl2 10 mM and dithiothreitol 0.1 mM (kinase buffer). The reaction mixture was incubated for the indicated time at 30° C. and the reaction stopped by adding 50 μl of 5% trichloroacetic acid.
After a brief incubation on ice, tubes were centrifuged. The supernatants were spotted on phosphocellulose paper squares (Whatman P-81) and washed extensively in acetic acid. The radioactivity bound to dried phosphocellulose squares was measured in a liquid scintillation counter. IC50 values were calculated from triplicate determinations of each experimental point. Each inhibitor was tested at concentrations ranging from […] in the presence of fixed concentrations of peptide (2 mM) and ATP (50 μM).

Row | SMILES | pIC50
1 | N#CC(=Cc1c[nH]c2ncccc12)C(N)=O [2-cyano-3-(7-azaindol-3-yl)acrylamide] | 5.33
2 | O=C1Nc2ccccc2/C1=C/c1c[nH]c2ncccc12 [3-[(7-azaindol-3-yl)methylen]-2-oxindole, (Z)-3-[(7-azaindol-3-yl)methylen]-2-oxindole] | 7.30
